Consider eight molecules from PubChem BioAssay (NCI).

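1) Cells in 96-well plates. 2) Compound, 48 h, 5 concentrations. 3) Linear interpolation between surrounding doses. 4) Unreached endpoint = highest concentration. Here, GI50 denotes the concentration required for 50% inhibition of growth. TGI marks complete inhibition of growth.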

Some test systems named below: ACHN renal; HS 578T breast; MCF7 breast; T-47D breast; DU-145 prostate; SR leukemia; RPMI-8226 leukemia; M14 melanoma; HOP-18 NSCLC; XF 498 CNS; SNB-78 CNS; DMS 114 small cell lung.
What all share (experiment): growth of human tumour cells (NCI), 48 h

Regarding `CCCCCCCCCCCCCCCCCCOc1ccccc1COP(=O)(O)OOCC[N+](C)(C)C`, the GI50 with ACHN renal is 1.45 µM; with HS 578T breast, 1.18 µM; in the test on MCF7 breast, 1.14 µM; in the test on T-47D breast, 1.79 µM; with DU-145 prostate, 1.88 µM. In addition, the TGI in the test with ACHN renal was found to be 5.62 µM; in the test with HS 578T breast, 4.91 µM; with MCF7 breast it was 3.32 µM; in the test with T-47D breast, 11.2 µM; in the test on DU-145 prostate, 7.43 µM.
Regarding `O=C1OC(c2ccccc2Br)=N/C1=C/c1ccccc1`, the TGI was 77.5 µM with ACHN renal; above 100 µM in the test with HS 578T breast; above 100 µM in the test on MCF7 breast; above 100 µM with SR leukemia; above 100 µM in the test with T-47D breast; above 100 µM with RPMI-8226 leukemia. Also, the TGI is 41.1 µM in the test with M14 melanoma and above 100 µM in the test on DU-145 prostate.
As to `COC(=O)Cc1c(C2C(CC(=O)OC)c3ccccc3N2C2OC(CO)C(O)C(O)C2O)[nH]c2ccccc12` (configuration not stated), the TGI with SR leukemia, in the test on RPMI-8226 leukemia, in the test with M14 melanoma and with DU-145 prostate was above 100 µM throughout.
Regarding `NC(CSCSCC(N)C(=O)O)C(=O)O` (configuration not stated), the TGI is above 225 µM in the test on HOP-18 NSCLC; above 225 µM in the test on MCF7 breast; above 225 µM with XF 498 CNS; above 225 µM in the test on RPMI-8226 leukemia; above 104 µM in the test with SNB-78 CNS; above 225 µM in the test on DMS 114 small cell lung.
As to `CC(C)(C)CI`, the TGI with ACHN renal is 58.5 µM; with HOP-18 NSCLC, above 10 µM; in the test with SR leukemia it was 76.7 µM; in the test with XF 498 CNS, 34.9 µM; with M14 melanoma it was 71.3 µM; with SNB-78 CNS, 79.4 µM. The molecule also returned a TGI in the test on DMS 114 small cell lung of 48.3 µM.
Turning to `O=c1oc2ccccc2n1P(=O)(Oc1ccc(Cl)cc1)n1c(=O)oc2ccccc21`, the TGI with ACHN renal, with HOP-18 NSCLC, in the test on SR leukemia, in the test with SNB-78 CNS and in the test on DMS 114 small cell lung was above 100 µM in each case.
With `C#CCNC(=O)CC[C@@H](C)[C@H]1CC[C@H]2[C@@H]3CC[C@@H]4CC(=O)CC[C@]4(C)[C@H]3CC[C@]12C`, the GI50 in the test on ACHN renal was 14.9 µM; with HS 578T breast, 21.3 µM; in the test with MCF7 breast it was 12 µM; in the test on SR leukemia, 3.17 µM; with T-47D breast it was 8 µM; in the test on RPMI-8226 leukemia, 1.82 µM. In addition, the values for the GI50 in the test on M14 melanoma and with DU-145 prostate were 14.6 µM and 14.8 µM, respectively. Moreover, the TGI stood at 32.4 µM in the test on ACHN renal; 77.3 µM in the test on HS 578T breast; 52.7 µM with MCF7 breast; 33.3 µM in the test on SR leukemia; 68.2 µM in the test on T-47D breast; 19.1 µM in the test with RPMI-8226 leukemia. The TGI in the test on M14 melanoma amounted to 37.2 µM; in the test with DU-145 prostate it was 35.1 µM.
Regarding `CC1OC(CO)(n2cnc3c(N)ncnc32)C(O)C1O` (configuration not stated), the TGI with HOP-18 NSCLC, in the test on MCF7 breast, in the test on XF 498 CNS, with RPMI-8226 leukemia, in the test with SNB-78 CNS and in the test with DMS 114 small cell lung was above 100 µM throughout.
